Source: publication PMC4259467, “Molecular Cloning, Characterization and Positively Selected Sites of the Glutathione S-Transferase Family from Locusta migratoria” (PLoS ONE, 2014)

Key:
Experiment in all cases: spectrophotometric GST assay, steady state
Format in all cases: biochemical
Conditions in all cases: co-substrate GSH; pH and temperature not given; read-out: K m ^CDNB
LmGSTT2 = target: T1, LmGSTT2 (Locusta migratoria, UniProt V9Q331)
T1 construct: gene GSTt2; full-length ORF in pET28a, E. coli BL21(DE3), His-tag Ni-NTA purified
T1 sequence (V9Q331 1-231): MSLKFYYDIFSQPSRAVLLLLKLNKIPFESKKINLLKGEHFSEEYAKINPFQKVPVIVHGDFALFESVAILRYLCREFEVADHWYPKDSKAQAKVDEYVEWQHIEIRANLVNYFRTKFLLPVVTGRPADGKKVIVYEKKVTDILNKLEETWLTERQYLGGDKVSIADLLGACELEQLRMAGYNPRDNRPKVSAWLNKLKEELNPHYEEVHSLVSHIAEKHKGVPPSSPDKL
Excerpt: spectrophotometric GST assay, steady state on LmGSTT2

LmGSTO2 = target: T2, LmGSTO2 (Locusta migratoria, UniProt I3QKS2)
T2 construct: gene GSTo2; full-length ORF in pET28a, E. coli BL21(DE3), His-tag Ni-NTA purified
T2 sequence (I3QKS2 1-245): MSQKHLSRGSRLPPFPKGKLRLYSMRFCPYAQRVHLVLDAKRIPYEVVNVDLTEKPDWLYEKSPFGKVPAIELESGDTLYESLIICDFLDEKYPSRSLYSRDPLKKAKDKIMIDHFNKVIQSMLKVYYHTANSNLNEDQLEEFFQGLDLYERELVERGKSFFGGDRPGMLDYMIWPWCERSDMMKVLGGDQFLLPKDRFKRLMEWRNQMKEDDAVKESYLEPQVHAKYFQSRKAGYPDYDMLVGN
Excerpt: spectrophotometric GST assay, steady state on LmGSTO2

LmGSTT1 = target: T3, LmGSTT1 (Locusta migratoria, UniProt F4YUJ7)
T3 construct: full-length ORF in pET28a, E. coli BL21(DE3), His-tag Ni-NTA purified
T3 sequence (F4YUJ7 1-231): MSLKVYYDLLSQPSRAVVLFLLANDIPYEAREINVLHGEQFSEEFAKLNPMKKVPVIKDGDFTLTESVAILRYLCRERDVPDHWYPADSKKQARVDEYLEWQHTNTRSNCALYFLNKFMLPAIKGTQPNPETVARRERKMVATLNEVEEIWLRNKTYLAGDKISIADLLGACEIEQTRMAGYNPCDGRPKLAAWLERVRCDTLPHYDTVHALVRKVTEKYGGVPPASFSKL
Excerpt: spectrophotometric GST assay, steady state on LmGSTT1

LmGSTS7 = target: T4, LmGSTS7 (Locusta migratoria, UniProt F4YUJ6)
T4 construct: full-length ORF in pET28a, E. coli BL21(DE3), His-tag Ni-NTA purified
T4 sequence (F4YUJ6 1-204): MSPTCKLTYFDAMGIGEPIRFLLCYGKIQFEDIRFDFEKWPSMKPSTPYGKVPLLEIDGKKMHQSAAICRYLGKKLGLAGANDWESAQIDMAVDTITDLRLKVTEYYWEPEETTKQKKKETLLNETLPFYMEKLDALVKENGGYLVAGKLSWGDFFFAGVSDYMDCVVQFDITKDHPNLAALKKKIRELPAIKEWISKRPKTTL
Excerpt: spectrophotometric GST assay, steady state on LmGSTS7

LmGSTS8 = target: T5, LmGSTS8 (Locusta migratoria, UniProt V9Q487)
T5 construct: gene GSTs8; full-length ORF in pET28a, E. coli BL21(DE3), His-tag Ni-NTA purified
T5 sequence (V9Q487 1-204): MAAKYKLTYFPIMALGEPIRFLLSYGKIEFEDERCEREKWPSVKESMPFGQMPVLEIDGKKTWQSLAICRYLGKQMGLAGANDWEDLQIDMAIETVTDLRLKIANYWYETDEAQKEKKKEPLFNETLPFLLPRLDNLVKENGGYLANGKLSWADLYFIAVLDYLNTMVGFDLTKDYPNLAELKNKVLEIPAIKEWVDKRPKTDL
Excerpt: spectrophotometric GST assay, steady state on LmGSTS8

LmGSTO3 = target: T6, LmGSTO3 (Locusta migratoria, UniProt V9Q2Q7)
T6 construct: gene GSTo3; full-length ORF in pET28a, E. coli BL21(DE3), His-tag Ni-NTA purified
T6 sequence (V9Q2Q7 1-241): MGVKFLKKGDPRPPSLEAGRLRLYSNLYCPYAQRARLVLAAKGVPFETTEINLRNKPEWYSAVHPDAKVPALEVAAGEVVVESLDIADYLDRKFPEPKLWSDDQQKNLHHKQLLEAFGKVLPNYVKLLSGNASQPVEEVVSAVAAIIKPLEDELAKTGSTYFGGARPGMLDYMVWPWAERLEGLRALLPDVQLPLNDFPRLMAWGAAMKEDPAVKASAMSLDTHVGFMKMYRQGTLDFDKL
Excerpt: spectrophotometric GST assay, steady state on LmGSTO3

LmGSTE4 = target: T7, LmGSTE4 (Locusta migratoria, UniProt V9Q318)
T7 construct: gene GSTe4; full-length ORF in pET28a, E. coli BL21(DE3), His-tag Ni-NTA purified
T7 sequence (V9Q318 1-221): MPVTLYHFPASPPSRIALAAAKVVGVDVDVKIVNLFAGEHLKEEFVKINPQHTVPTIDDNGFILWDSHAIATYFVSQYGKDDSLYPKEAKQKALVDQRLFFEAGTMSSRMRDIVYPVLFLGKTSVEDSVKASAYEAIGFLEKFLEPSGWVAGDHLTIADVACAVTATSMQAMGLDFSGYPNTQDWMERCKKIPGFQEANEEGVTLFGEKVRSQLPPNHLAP
Excerpt: spectrophotometric GST assay, steady state on LmGSTE4

LmGSTZ1 = target: T8, LmGSTZ1 (Locusta migratoria, UniProt V9Q4A6)
T8 construct: gene GSTz1; full-length ORF in pET28a, E. coli BL21(DE3), His-tag Ni-NTA purified
T8 sequence (V9Q4A6 1-217): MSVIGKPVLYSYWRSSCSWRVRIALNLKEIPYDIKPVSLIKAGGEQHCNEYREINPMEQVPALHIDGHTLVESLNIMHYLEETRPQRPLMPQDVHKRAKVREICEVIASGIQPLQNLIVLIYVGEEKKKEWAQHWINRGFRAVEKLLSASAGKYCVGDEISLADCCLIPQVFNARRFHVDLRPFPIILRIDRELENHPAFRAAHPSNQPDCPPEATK
Excerpt: spectrophotometric GST assay, steady state on LmGSTZ1

LmGSTE5 = target: T9, LmGSTE5 (Locusta migratoria, UniProt V9Q3X9)
T9 construct: gene GSTe5; full-length ORF in pET28a, E. coli BL21(DE3), His-tag Ni-NTA purified
T9 sequence (V9Q3X9 1-221): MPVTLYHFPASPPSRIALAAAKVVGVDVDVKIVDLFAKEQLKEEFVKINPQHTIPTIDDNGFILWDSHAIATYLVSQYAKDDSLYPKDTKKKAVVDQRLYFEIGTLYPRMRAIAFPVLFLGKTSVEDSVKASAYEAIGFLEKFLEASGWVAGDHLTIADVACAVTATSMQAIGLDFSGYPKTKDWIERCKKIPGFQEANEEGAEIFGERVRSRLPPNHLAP
Excerpt: spectrophotometric GST assay, steady state on LmGSTE5

For `O=[N+]([O-])c1ccc(Cl)c([N+](=O)[O-])c1` [CDNB], the Km (LmGSTT2) was 393 ± 49 µM, the Km (LmGSTO2) was 841 ± 138 µM and the Km (LmGSTT1) was 260 ± 14 µM. For the same compound, the Km (LmGSTS7) was 46 ± 1 µM, the Km (LmGSTS8) was 100 ± 6 µM and the Km (LmGSTO3) was 216 ± 4 µM. For the same compound, the Km (LmGSTE4) was 102 ± 8 µM, the Km (LmGSTZ1) was 452 ± 58 µM and the Km (LmGSTE5) was 26 ± 2 µM.
